Source: the NIST ThermoML archive (doi:10.1016/j.jct.2017.01.001)
± gives the expanded uncertainty stated by the source.

Assay: wn = mass fraction of the nth substance listed
Details: 100 kPa, Liquid, Pycnometric method

Structure (SMILES)	mass density (323.15 K, w1 = 0.323) [kg/m3]	mass density (343.15 K, w1 = 0.3141) [kg/m3]	mass density (363.15 K, w1 = 0.3071) [kg/m3]	mass density (323.15 K, w1 = 0.5495) [kg/m3]	mass density (343.15 K, w1 = 0.5753) [kg/m3]	mass density (363.15 K, w1 = 0.5961) [kg/m3]
O=C([O-])[O-].[Na+].[Na+] [sodium carbonate] + O	1323.5 ± 20	1310.2 ± 20	1268.7 ± 20	–	–	–
O=C([O-])[O-].[K+].[K+] [potassium carbonate] + O	–	–	–	1583.2 ± 20	1594.3 ± 20	1626.5 ± 20
